# Data taken from patent US20250255889A1, “METHODS FOR TREATMENT SELECTION FOR CHRONIC LYMPHOCYTIC LEUKEMIA (CLL)” (The Broad Institute, Inc., priority 2022, published 2025).
# Experiments:
# [1] = system: primary CLL samples (CD19+ and CD5+ cells); test: High-throughput dynamic BH3 profiling (HT-DBP): drug-induced apoptotic priming (delta priming), cytochrome c release after BH3 peptide; format: cell-based, human; details: for priming in CLL groups: CLL sample groups compared with normal PBMCs; for drug-induced apoptotic priming: across CLL subtypes, 65 primary CLL samples, 20 hours drug
# How it was run: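 Primary CLL cells (CD19+/CD5+) are treated with the agent or DMSO carrier, then briefly exposed to a fixed concentration of a promiscuous BH3 peptide such as BIM. Mitochondrial cytochrome c release serves as the priming surrogate. Delta priming is drug-treated priming minus DMSO-treated priming, run in high-throughput format.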
# [2] = system: healthy PBMCs (normal cell types CD14, CD19, CD3); test: HT-DBP delta priming in healthy donor normal cells; format: cell-based, human; details: normal peripheral blood mononuclear cells
# Method: FIG. 17 provides a heatmap showing median delta priming across healthy donors for the indicated normal cell types (CD14, CD19, and CD3).
# The assay was robust, as indicated by an 0.92 median Pearson correlation across replicates (FIGS. 5A, 5B, 6A, and 6B). Additionally, the majority of drugs had greater effect on CLL samples than on healthy PBMCs (p<0.001, paired t-test), supporting their specificity (FIGS. 7A-7C).
# Delta-priming was measured for the molecular features listed along the top of FIGS. 14, 17, and 32 using the HT-DBP screen. The molecular features included IGHV subtypes, epitypes, expression subtypes (i.e., expression clusters), mutations in driver genes, and recurrent copy-number events. A feature was included in the heatmap of FIG. 14 only if at least 2 patients in a DBP screen had the feature. Median delta-priming was computed across all BH3 peptides and across all patients within the feature. […] Plots showing molecular features for groups of 65 and 81 patients were also compiled (see FIGS. 19, 20).
# [3] = peptide BAD 0.3 uM, feature EC-m3
# [4] = peptide MS1 2.5 uM, feature gain_16p11.2
# [5] = peptide PUMA 1 uM, feature EC-m2
# [6] = peptide PUMA 1 uM, feature loss_6q21
structure (smiles),measurement,setting,value
"CC1(C)CCC(c2ccc(Cl)cc2)=C(CN2CCN(c3ccc(C(=O)NS(=O)(=O)c4ccc(N[C@H](CCN5CCOCC5)CSc5ccccc5)c(S(=O)(=O)C(F)(F)F)c4)cc3)CC2)C1 [Navitoclax, navitoclax]",priming in CLL groups,[1],potentially therapeutically relevant priming
same,drug-induced apoptotic priming by expression cluster,[1]; EC-i,more sensitive to navitoclax than any other drug
same,drug-induced apoptotic priming by expression cluster,[1]; EC-u2 (U-CLL),most sensitive
same,direction,[1]; Feature EC-m2,Resistant
same,direction,[1]; Feature M-CLL,Sensitive
same,direction,[1]; Feature U-CLL,Resistant
same,direction,[1]; Feature n-CLL,Resistant
same,drug-induced apoptotic priming,[1],high priming
same,direction,[1]; [3],Sensitive
same,direction,"[1]; peptide BAD 0.3 uM, feature EC-u1",Resistant
same,direction,"[1]; peptide BAD 0.3 uM, feature M-CLL",Sensitive
same,direction,"[1]; peptide BAD 0.3 uM, feature U-CLL",Resistant
same,direction,"[1]; peptide BAD 0.3 uM, feature loss_3p21.31",Sensitive
same,direction,"[1]; peptide BAD 0.3 uM, feature loss_5p15.33",Sensitive
same,direction,"[1]; peptide BAD 0.3 uM, feature loss_7q36.1",Sensitive
same,direction,"[1]; peptide BAD 0.3 uM, feature loss_8p",Sensitive
same,direction,"[1]; peptide BAD 0.3 uM, feature loss_12p13.31a",Sensitive
same,direction,"[1]; peptide BAD 0.3 uM, feature loss_14q32.12",Sensitive
same,direction,"[1]; peptide BAD 0.3 uM, feature loss_17p13.3",Sensitive
same,direction,"[1]; peptide BAD 0.3 uM, feature n-CLL",Resistant
same,direction,"[1]; peptide BIM 0.01 uM, feature loss_3p21.31",Sensitive
same,direction,"[1]; peptide BIM 0.01 uM, feature loss_7q36.1",Sensitive
same,direction,"[1]; peptide BIM 0.01 uM, feature loss_8p",Sensitive
same,direction,"[1]; peptide BIM 0.01 uM, feature loss_14q32.12",Sensitive
same,direction,"[1]; peptide MS1 2.5 uM, feature MYD88",Sensitive
same,direction,[1]; [4],Sensitive
same,direction,"[1]; peptide MS1 2.5 uM, feature loss_3p21.31",Sensitive
same,direction,"[1]; peptide MS1 2.5 uM, feature loss_7q36.1",Sensitive
same,direction,"[1]; peptide MS1 2.5 uM, feature loss_8p",Sensitive
same,direction,"[1]; peptide MS1 2.5 uM, feature loss_14q32.12",Sensitive
same,direction,[1]; [5],Resistant
same,direction,"[1]; peptide PUMA 1 uM, feature EC-m4",Sensitive
same,direction,[1]; [6],Resistant
same,direction,"[1]; peptide PUMA 1 uM, feature loss_14q32.12",Sensitive
same,priming response in normal cell groups,[2],minimal priming response
"CC1(C)CCC(CN2CCN(c3ccc(C(=O)NS(=O)(=O)c4ccc(NCC5CCOCC5)c([N+](=O)[O-])c4)c(Oc4cnc5[nH]ccc5c4)c3)CC2)=C(c2ccc(Cl)cc2)C1 [Venetoclax, venetoclax]",priming in CLL groups,[1],potentially therapeutically relevant priming
same,drug-induced apoptotic priming by expression cluster,"[1]; EC-m2, within M-CLL ECs",least effective
same,drug-induced apoptotic priming by expression cluster,"[1]; EC-m3, within M-CLL ECs",most effective
same,direction,[1]; Feature EC-m2,Resistant
same,direction,[1]; Feature loss_13q14.3,Sensitive
same,drug-induced apoptotic priming,[1],highly effective
same,positive delta priming values (rank among drugs),"[1]; across all evaluated BH3 peptides, 42 drugs",top-ten drugs with the highest positive delta priming values
same,delta priming value of combined treatment,"[1]; combined with MS1 peptide (MCL1 inhibitor), relative to alternative treatments",increased delta priming value
same,direction,[1]; [3],Sensitive
same,direction,"[1]; peptide BAD 0.3 uM, feature loss_13q14.3",Sensitive
same,direction,"[1]; peptide BIM 0.01 uM, feature SAMHD1",Sensitive
same,direction,"[1]; peptide MS1 2.5 uM, feature POT1",Sensitive
same,direction,[1]; [4],Sensitive
same,direction,"[1]; peptide MS1 2.5 uM, feature loss_13q14.13",Sensitive
same,direction,[1]; [5],Resistant
same,direction,[1]; [6],Resistant
same,priming response in normal cell groups,[2],minimal priming response
